IC50 data for 47 compounds are collected here from patent US11787762B2, “Tetralin and tetrahydroquinoline compounds as inhibitors of HIF-2alpha” (ARCUS BIOSCIENCES, INC., priority 2020, dated 2023).

pIC50: −log10 of the molar value.

For one assay, the target named is T1, HIF-2α (Homo sapiens, UniProt Q99814).
T1 construct: host or cells: 786-O cells stably transduced with Cignal Lenti HIF Luc Reporter (only the reporter was introduced, not HIF-2α)
In words: HIF-2α luciferase reporter assay in HIF-Luc-786-O cells. It counts as cell-based. The following applies: Table 1, 20 hours incubation. The essentials: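 786-O cells stably carrying a HIF-responsive luciferase reporter, 20,000/well in OptiMem with 1% DMSO, exposed to compound up to 50 uM for 20 h at 37 °C. ONE-Glo luminescence normalised to DMSO and no-cell controls; IC50 by four-parameter fit.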

In assay [1] the target is T2, Histidine tagged HIF-2α protein containing PAS-B domain (240-350) (Homo sapiens, UniProt Q99814).
T2 construct: HIF-2α protein containing PAS-B domain (240-350); made in house
T2 sequence (Q99814 240-350): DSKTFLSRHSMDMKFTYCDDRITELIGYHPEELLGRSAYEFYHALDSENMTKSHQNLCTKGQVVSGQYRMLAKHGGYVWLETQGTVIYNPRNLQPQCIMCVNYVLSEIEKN
The assay is described as follows: HIF-2α Scintillation Proximity Assay (SPA) binding assay. The conditions noted are these: Table 1; 50 nM HIF-2α protein, 25 nM 3H-tracer. On the procedure:
HIF-2α Scintillation Proximity Assay (SPA) Binding Assay:
Tritium labeled compound N-(3-chlorophenyl)-4-nitro-2,1,3-benzoxadiazol-5-amine was obtained from American Radiolabeled Chemicals Inc. and copper chelate PVT SPA beads were from PerkinElmer (Cat #RPNQ0095). Histidine tagged HIF-2α protein containing PAS-B domain (240-350) was prepared and purified in house.
Compounds solubilized in DMSO were dispensed into a white 384-well polystyrene non-binding flat clear bottom plate (Greiner Bio-One, Cat #781903) using an HP D300 dispenser. Ten microliters of HIS-tagged HIF-2α protein in buffer (25 mM Tris-HCl, pH 7.4, 150 mM NaCl, 0.15% BSA and 0.001% Tween 20) was added to the compound wells and allowed to incubate for 1 hour at room temperature. Ten microliters of SPA bead mix were added to the wells and incubated for an additional 45 minutes, followed by 10 ul of ^3H-tracer solution. Final assay conditions comprised 50 nM HIF-2α protein, 25 nM radiolabeled tracer and 3 ug beads per well with compounds in 2% DMSO. The plate was read using a MicroBeta Microplate Counter (PerkinElmer) for luminescence detection. The IC50 values of the test compounds were determined from compound dose response curves fitted using a standard four parameter fit equation and are reported in Table 1, Table 2, and Table 3.

T1 sequence (Q99814 whole entry): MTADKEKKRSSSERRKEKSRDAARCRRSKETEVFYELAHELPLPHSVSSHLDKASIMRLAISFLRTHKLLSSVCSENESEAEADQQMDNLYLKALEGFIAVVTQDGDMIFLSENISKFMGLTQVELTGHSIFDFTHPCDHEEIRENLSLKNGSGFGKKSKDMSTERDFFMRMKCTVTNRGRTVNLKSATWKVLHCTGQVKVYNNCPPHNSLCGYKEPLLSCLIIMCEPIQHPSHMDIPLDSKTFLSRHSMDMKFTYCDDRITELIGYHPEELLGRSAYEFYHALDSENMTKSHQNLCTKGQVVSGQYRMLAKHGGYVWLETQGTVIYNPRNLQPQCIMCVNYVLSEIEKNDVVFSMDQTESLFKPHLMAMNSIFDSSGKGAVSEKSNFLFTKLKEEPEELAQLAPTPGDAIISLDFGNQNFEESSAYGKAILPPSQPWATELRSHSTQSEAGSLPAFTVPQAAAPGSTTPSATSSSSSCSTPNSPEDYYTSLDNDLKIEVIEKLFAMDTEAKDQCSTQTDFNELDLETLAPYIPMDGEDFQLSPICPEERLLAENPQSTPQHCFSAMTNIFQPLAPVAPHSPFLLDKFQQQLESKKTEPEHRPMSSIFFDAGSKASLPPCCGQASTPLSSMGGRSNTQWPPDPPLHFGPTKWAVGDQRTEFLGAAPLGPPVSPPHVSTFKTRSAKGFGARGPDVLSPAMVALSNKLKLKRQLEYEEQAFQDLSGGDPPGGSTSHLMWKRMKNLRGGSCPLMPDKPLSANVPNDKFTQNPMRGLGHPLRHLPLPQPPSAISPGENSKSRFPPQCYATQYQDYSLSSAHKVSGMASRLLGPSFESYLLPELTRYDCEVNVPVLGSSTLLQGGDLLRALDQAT

The pIC50 is the IC50 on a negative log10 scale, so that one unit is a factor of ten. High values mean a low IC50, low ones a high IC50. In the case of `O=S(=O)(c1ccc(N2C[C@@H](O)Cc3cc(F)cc(F)c32)c2c1[C@H](O)[C@H](F)C2)C(F)(F)F` [Example 66], the negative logarithm of the IC50 (pIC50) (against HIF-2α; in assay [1]) was less than 6.00 throughout.

With `O=Cc1c(S(=O)(=O)C(F)(F)F)ccc(N2CCCc3cc(F)cc(F)c32)c1Cl` [Example 68], the pIC50 (against HIF-2α; in assay [1]) was less than 6.00 each time.

In the case of `O=Cc1c(S(=O)(=O)C(F)(F)F)ccc(N2CCCc3cc(F)cc(F)c32)c1Cl` [Example 69], the pIC50 against HIF-2α is less than 6.00; in assay [1], 6.00 to 7.00.

Turning to `O=[N+]([O-])c1cc(C(O)(C(F)(F)F)C(F)(F)F)ccc1N1CCCc2cc(F)cc(F)c21` [Example 70], the pIC50 (on HIF-2α; in assay [1]) was less than 6.00 each time.

For `N#Cc1c(Cl)ccc(N2CCCc3cc(F)cc(F)c32)c1C(F)F` [Example 71], the pIC50 (against HIF-2α; in assay [1]) was less than 6.00 in each case.

Turning to `N#Cc1c(S(N)(=O)=O)ccc(N2CCCc3cc(F)cc(F)c32)c1C(F)F` [Example 72], the negative logarithm of the IC50 (pIC50) (against HIF-2α; in assay [1]) was less than 6.00 throughout.

Turning to `O=[N+]([O-])c1cc(S(=O)(=O)C(F)(F)F)ccc1N1CCOc2cc(F)cc(F)c21` [Example 73], the pIC50 (at HIF-2α; in assay [1]) was less than 6.00 in each case.

As for `Cc1ccc2c(c1)N(c1ccc(S(=O)(=O)C(F)(F)F)cc1[N+](=O)[O-])CCC2` [Example 74], the pIC50 (against HIF-2α; in assay [1]) was less than 6.00 throughout.

Turning to `N#Cc1c(S(N)(=O)=O)ccc(N2CCCc3cc(F)cc(F)c32)c1Cl` [Example 75], the negative-log IC50 (pIC50) (against HIF-2α; in assay [1]) was less than 6.00 in each case.

Turning to `O=S(=O)(c1ccc(N2CCCc3cc(F)cc(F)c32)cc1CO)C(F)(F)F` [Example 76], the pIC50 (against HIF-2α; in assay [1]) was less than 6.00 each time.

For the compound `COC(=O)c1cc(N2CCCc3cc(F)cc(F)c32)ccc1S(=O)(=O)C(F)(F)F` [Example 77], the pIC50 (against HIF-2α; in assay [1]) was less than 6.00 each time.

As for `O=S(=O)(c1ccc(N2CCCc3cc(F)cc(F)c32)c2c1C(O)CC2)C(F)(F)F` (stereo not shown) [Example 78], the pIC50 (against HIF-2α; in assay [1]) was less than 6.00 throughout.

With `O=S(=O)(c1ccc(N2CCCc3cc(F)cc(F)c32)c(Cl)c1C(O)C(F)(F)F)C(F)(F)F` (stereo not shown) [Example 79], the pIC50 (on HIF-2α; in assay [1]) was less than 6.00 each time.

Turning to `N#Cc1cc(S(=O)(=O)C(F)(F)F)ccc1N1CCCc2cc(F)cc(F)c21` [Example 80], the pIC50 (at HIF-2α; in assay [1]) was less than 6.00 each time.

`O=S(=O)(c1ccc(N2CCCc3cc(F)cc(F)c32)c2cn[nH]c12)C(F)(F)F` [Example 81]: the pIC50 (at HIF-2α; in assay [1]) was less than 6.00 throughout.

In the case of `O=S(=O)(c1ccc(N2CCCc3cc(F)cc(F)c32)c(Cl)c1CO)C(F)(F)F` [Example 83], the pIC50 (against HIF-2α; in assay [1]) was less than 6.00 throughout.

For the compound `O=[N+]([O-])c1cc(C(O)C(F)(F)F)ccc1N1CCCc2cc(F)cc(F)c21` (stereo not shown) [Example 84], the negative-log IC50 (pIC50) (at HIF-2α; in assay [1]) was less than 6.00 each time.

For the compound `COC(=O)c1c(S(=O)(=O)C(F)(F)F)ccc(N2CCCc3cc(F)cc(F)c32)c1Cl` [Example 85], the pIC50 (on HIF-2α; in assay [1]) was less than 6.00 each time.

For the compound `N#Cc1cc(C(F)(F)F)ncc1N1CCCc2cc(F)cc(F)c21` [Example 86], the pIC50 (at HIF-2α; in assay [1]) was less than 6.00 throughout.

In the case of `CC(O)(c1ccc(N2CCCc3cc(F)cc(F)c32)c([N+](=O)[O-])c1)C(F)(F)F` (stereo not shown) [Example 87], the pIC50 (at HIF-2α; in assay [1]) was less than 6.00 in each case.

With `O=S(=O)(c1ccc(C2CCCc3cc(F)cc(F)c32)c2c1[C@H](O)[C@H](F)C2)C(F)(F)F` (stereo partly shown) [Example 89], the pIC50 (on HIF-2α; in assay [1]) was greater than 7.00 in each case.

As for `N#Cc1cc(F)cc2c1[C@@H](c1ccc(S(=O)(=O)C(F)(F)F)c3c1CC[C@H]3O)CCC2` [Example 90], the pIC50 (on HIF-2α; in assay [1]) was greater than 7.00 each time.

Consider `N#Cc1cc(F)cc2c1[C@@H](c1ccc(C(F)(F)F)c3c1OC(F)(F)[C@H]3O)CCC2` [Example 91], for which the pIC50 (against HIF-2α; in assay [1]) was greater than 7.00 in each case.

For the compound `CS(=O)(=O)c1ccc([C@H]2CCCc3cc(F)cc(F)c32)c2c1[C@H](O)C(F)(F)C2` [Example 93], the pIC50 is 6.00 to 7.00 against HIF-2α and greater than 7.00 in assay [1].

Turning to `CS(=O)(=O)c1ccc([C@H]2CCCc3cc(F)cc(C#N)c32)c2c1[C@H](O)[C@@H](F)CC2` [Example 94], the pIC50 (against HIF-2α; in assay [1]) was 6.00 to 7.00 throughout.

With `CS(=O)(=O)c1ccc([C@H]2CCCc3cccc(C#N)c32)c2c1[C@H](O)[C@H](F)C2` [Example 97], the pIC50 (at HIF-2α; in assay [1]) was 6.00 to 7.00 in each case.

Take `CS(=O)(=O)c1ccc([C@H]2CCCc3cc(F)cc(C#N)c32)c2c1[C@H](O)[C@H](F)CC2` [Example 98]: the pIC50 (against HIF-2α; in assay [1]) was 6.00 to 7.00 each time.

Turning to `N#Cc1cc(F)cc2c1[C@H](c1ccc(S(=O)(=O)C(F)(F)F)c3c1CC[C@H]3O)CCC2` [Example 100], the pIC50 (against HIF-2α; in assay [1]) was 6.00 to 7.00 throughout.

With `O=S(=O)(c1ccc([C@@H]2c3c(F)cc(F)cc3CC[C@@H]2O)c2c1[C@H](O)[C@H](F)C2)C(F)(F)F` [Example 101], the pIC50 was less than 6.00 on HIF-2α and 6.00 to 7.00 in assay [1].

Take `O=S(=O)(c1ccc([C@H]2CCNc3cc(F)cc(F)c32)c2c1[C@H](O)[C@H](F)C2)C(F)(F)F` [Example 102]: the pIC50 (against HIF-2α; in assay [1]) was less than 6.00 each time.

On to `O=S1(=O)c2ccc(C3CCCc4cc(F)cc(F)c43)c(Cl)c2C(O)C1(F)F` (stereo not shown) [Example 103], for which the pIC50 (against HIF-2α; in assay [1]) was less than 6.00 each time.

Regarding `O=S(=O)(c1ccc([C@@H]2CCOc3cc(F)cc(F)c32)c2c1[C@H](O)[C@H](F)C2)C(F)(F)F` [Example 104], the pIC50 (against HIF-2α; in assay [1]) was less than 6.00 each time.

Turning to `CS(=O)(=O)c1ccc([C@@H]2CCCc3cc(F)cc(C#N)c32)c2c1[C@H](O)[C@@H](F)CC2` [Example 105], the pIC50 (on HIF-2α; in assay [1]) was less than 6.00 in each case.

`CS(=O)(=O)c1ccc([C@@H]2CCCc3cnccc32)c2c1[C@H](O)C(F)(F)C2` [Example 106]: the pIC50 (on HIF-2α; in assay [1]) was less than 6.00 in each case.

On to `CS(=O)(=O)c1ccc([C@@H]2CNCc3cc(F)cc(F)c32)c2c1[C@H](O)C(F)(F)C2` [Example 107], for which the pIC50 (on HIF-2α; in assay [1]) was less than 6.00 throughout.

As for `N#Cc1cc(F)cc2c1[C@H](c1ccc(C(F)(F)F)c3c1OC(F)(F)[C@H]3O)CCC2` [Example 108], the negative-log IC50 (pIC50) (on HIF-2α; in assay [1]) was less than 6.00 in each case.

For the compound `O=S(=O)(c1ccc([C@]2(O)CCCc3cc(F)cc(F)c32)c2c1[C@H](O)[C@H](F)C2)C(F)(F)F` [Example 109], the pIC50 (on HIF-2α; in assay [1]) was less than 6.00 each time.

Turning to `CS(=O)(=O)c1ccc(C2CCCc3cc(F)cc(F)c32)c2cccnc12` (stereo not shown) [Example 110], the pIC50 (on HIF-2α; in assay [1]) was less than 6.00 in each case.

For the compound `CS(=O)(=O)c1ccc([C@H]2NCCc3cc(F)cc(F)c32)c2c1[C@H](O)C(F)(F)C2` [Example 111], the pIC50 (at HIF-2α; in assay [1]) was less than 6.00 throughout.

As to `O=S(=O)(c1ccc([C@@H]2CCNc3cc(F)cc(F)c32)c2c1[C@H](O)[C@H](F)C2)C(F)(F)F` [Example 112], the negative logarithm of the IC50 (pIC50) (against HIF-2α; in assay [1]) was less than 6.00 each time.

For `CC1(O)c2c(S(C)(=O)=O)ccc([C@H]3CCCc4cc(F)cc(F)c43)c2CC1(F)F` (stereo partly shown) [Example 113], the pIC50 (against HIF-2α; in assay [1]) was less than 6.00 throughout.

Consider `CC1(C)CC[C@H](c2ccc(S(=O)(=O)C(F)(F)F)c3c2C[C@@H](F)[C@H]3O)c2c(C#N)cc(F)cc21` [Example 114], for which the pIC50 (against HIF-2α; in assay [1]) was greater than 7.00 in each case.

On to `N#Cc1cc(F)cc2c1[C@@H](c1ccc(S(=O)(=O)C(F)F)c3c1C[C@@H](F)[C@H]3O)CCC2` [Example 115], for which the pIC50 (against HIF-2α; in assay [1]) was greater than 7.00 in each case.

For `Cn1nccc1-c1ccc([C@H]2CCCc3cc(F)cc(C#N)c32)c2c1[C@H](O)C(F)(F)C2` [Example 116], the pIC50 (at HIF-2α; in assay [1]) was greater than 7.00 throughout.

As to `N#Cc1cc(F)cc2c1[C@@H](c1ccc(Cl)c3c1CC(F)(F)[C@H]3O)CCC2` [Example 117], the pIC50 (at HIF-2α; in assay [1]) was 6.00 to 7.00 in each case.

`N#Cc1cc(F)cc2c1N(c1ccc(C(F)(F)F)c(F)c1C#N)CCC2` [Example 118]: the pIC50 (against HIF-2α; in assay [1]) was 6.00 to 7.00 throughout.

On to `N#Cc1cc(F)cc2c1N(c1ccc(C(F)(F)F)c(F)c1C#N)CCC2O` (stereo not shown) [Example 119], for which the figures for the pIC50 (against HIF-2α; in assay [1]) were 6.00 to 7.00 and less than 6.00, respectively.
